# ChEMBL document CHEMBL1125546, “Novel 5-HT3 antagonists. Isoquinolinones and 3-aryl-2-pyridones” (J Med Chem, 1992)
# Key:
# [1] = system: Canis familiaris; test: Compound was evaluated for protection against cisplatin-induced emesis by measuring number of retches in dogs administered intravenously at 0.03 mg/kg; type: functional, Canis lupus familiaris; settings: route intravenous
# [2] = Compound was evaluated for protection against cisplatin-induced emesis by measuring number of retches in ferrets administered perorally at 0.3 mg/kg; type: functional, Mustela putorius furo; settings: route oral
# [3] = Compound was evaluated for protection against cisplatin-induced emesis by measuring number of retches in ferrets administered perorally at 0.1 mg/kg; type: functional, Mustela putorius furo; settings: route oral
# [4] = system: Canis familiaris; test: Compound was evaluated for protection against cisplatin-induced emesis by measuring number of retches in dogs administered perorally at 1.0 mg/kg; type: functional, Canis lupus familiaris; settings: route oral
# [5] = system: Canis familiaris; test: Compound was evaluated for protection against cisplatin-induced emesis by measuring number of emetic episodes in dogs administered intravenously at 0.3 mg/kg; type: functional, Canis lupus familiaris; settings: route intravenous
# [6] = Compound was evaluated for number of emetic episodes in ferrets administered intravenously at 0.1 mg/kg; type: functional, Mustela putorius furo; settings: route intravenous
# [7] = system: Canis familiaris; test: Compound was evaluated for protection against cisplatin-induced emesis by measuring number of retches in dogs administered intravenously at 0.3 mg/kg; type: functional, Canis lupus familiaris; settings: route intravenous
# [8] = Compound was evaluated for number of emetic episodes in ferrets administered intravenously at 1.0 mg/kg; type: functional, Mustela putorius furo; settings: route intravenous
# [9] = system: Canis familiaris; test: Compound was evaluated for protection against cisplatin-induced emesis by measuring number of emetic episodes in dogs administered perorally at 0.3 mg/kg; type: functional, Canis lupus familiaris; settings: route oral
# [10] = Compound was evaluated for protection against cisplatin-induced emesis by measuring number of retches in ferrets administered perorally at 1.0 mg/kg; type: functional, Mustela putorius furo; settings: route oral
# [11] = system: Rattus norvegicus; test: Inhibitory activity against Bezold-jarisch functional assay, inducing a transient bradycardia upon intravenous administration of 5-hydroxytryptamine-(10 ug/kg) in anesthetized rats.; settings: read-out: ID50 (the source's name)
# [12] = system: Mus musculus; test: Acute lethal toxicity in mouse at 8.4 mg/kg when administered intravenously; value = 5/10; type: organism-based; design: dose 8.4 mg/kg, route intravenous; settings: in vivo, iv
# [13] = system: Canis familiaris; test: No. of emetic episodes in dogs when administered perorally at 3.0 mg/kg; type: functional, Canis lupus familiaris; settings: route oral
# [14] = system: Mustela putorius furo; test: Compound was evaluated for number of emetic episodes in ferrets administered perorally at 0.1 mg/kg; type: functional; settings: route oral
# [15] = system: Canis familiaris; test: Compound was evaluated for protection against cisplatin-induced emesis by measuring number of retches in dogs administered perorally at 0.3 mg/kg; type: functional, Canis lupus familiaris; settings: route oral
# [16] = system: Mustela putorius furo; test: Compound was evaluated for number of emetic episodes in ferrets administered perorally at 1.0 mg/kg; type: functional; settings: route oral
# [17] = system: Canis familiaris; test: Compound was evaluated for protection against cisplatin-induced emesis by measuring number of emetic episodes in dogs administered intravenously at 0.03 mg/kg; type: functional, Canis lupus familiaris; settings: route intravenous
# [18] = system: Canis familiaris; test: Compound was evaluated for protection against cisplatin-induced emesis by measuring number of emetic episodes in dogs administered intravenously at 0.1 mg/kg; type: functional, Canis lupus familiaris; settings: route intravenous
# [19] = Compound was evaluated for number of emetic episodes in ferrets administered intravenously at 0.3 mg/kg; type: functional, Mustela putorius furo; settings: route intravenous
# [20] = system: Canis familiaris; test: Compound was evaluated for protection against cisplatin-induced emesis by measuring number of retches in dogs administered perorally at 3.0 mg/kg; type: functional, Canis lupus familiaris; settings: route oral
# [21] = system: Canis familiaris; test: Compound was evaluated for protection against cisplatin-induced emesis by measuring number of retches in dogs administered intravenously at 0.1 mg/kg.; type: functional, Canis lupus familiaris; settings: route intravenous
# [22] = system: Mustela putorius furo; test: Compound was evaluated for number of emetic episodes in ferrets administered perorally at 0.3 mg/kg; type: functional; settings: route oral
# [23] = system: Canis familiaris; test: Compound was evaluated for protection against cisplatin-induced emesis by measuring number of emetic episodes in dogs administered perorally at 1.0 mg/kg; type: functional, Canis lupus familiaris; settings: route oral
smiles,measurement,setting,value
Cc1nccn1CC1CCc2c(c3ccccc3n2C)C1=O (stereo unspecified) [ONDANSETRON],No. of retches,[1],118.8
same,No. of retches,[2],84.8
same,No. of retches,[3],125.3
same,No. of retches,[4],29.8
same,No. of emetic episodes,[5],4.1
same,No. of emetic episodes,[6],6.3
same,No. of retches,[6],114
same,No. of retches,[7],35.4
same,No. of emetic episodes,[8],0
same,No. of retches,[8],2.5
same,No. of emetic episodes,[9],9
same,No. of retches,[10],39.5
same,ED50,[11],0.86 µg/kg
same,Acute lethal toxicity,[12],Partially active
same,No. of emetic episodes,[13],2
same,No. of emetic episodes,[14],8.5
same,No. of retches,[15],112.8
same,No. of emetic episodes,[16],2.3
same,No. of emetic episodes,[17],10.5
same,No. of emetic episodes,[18],2.2
same,No. of emetic episodes,[19],3.5
same,No. of retches,[19],42.5
same,No. of retches,[20],22.8
same,No. of retches,[21],9
same,No. of emetic episodes,[22],6.3
same,No. of emetic episodes,[23],2.8
